# Tests used:
# [1] = system: cultured chick heart cells; experiment: Ko-dependence of Tc-MIBI net uptake in the absence and presence of TPB (FIG. 5); type: cell-based; details: absence of TPB; more pronounced in presence of TPB
# Protocol: FIG. 5. Ko -dependence of Tc-MIBI net uptake in the absence ( ) and presence (.quadrature.) of TPB (10^-5 M). Peak accumulation of Tc-MIBI was determined in preparations incubated in loading buffers containing the indicated Ko (equimolar replacement of NaCl by KCl) for 40 minutes (control) or for 20 minutes (+TPB). Ko -induced cell volume changes were prevented by addition of bumetanide (10^-5 M) to each buffer. Each point is the mean ±SEM of 3 determinations. Solid lines have no theoretical significance. The dashed line represents the Tc-MIBI content expected at each Ko assuming an intracellular/extracellular Tc-MIBI concentration ratio equal to the Ki /Ko ratio.
# (§1) Monolayers of spontaneously contractile chick ventricular myocardial cells were obtained from disaggregated 10-day old chick embryo hearts by a slight modification of previously published methods (Horres, C. R., et al., In Pinson, A. (ed.), The Heart Cell in Culture, Boca Raton, CRC Press, pp. 77-108 (1987)). Hearts were trimmed of connective tissue and atria, finely minced and serially exposed to 0.024% (w/v) trypsin in Ca^2+ - and Mg^2+ - free Earle's salt solution for 7 minutes at 37° C. […] Cells were centrifuged at 400 g for 10 minutes, resuspended and combined in culture medium, counted with a hemocytometer and diluted to yield a suspension of 5×10^5 cells/ml. […]
# [2] = diagnostic pharmaceutical; cited from earlier work
# [3] = system: cultured chick heart cells; experiment: Effect of MSA on Tc-MIBI net accumulation (FIG. 3); type: cell-based; details: TPB 10^-5 M, n=3
# Protocol: FIG. 3. Effect of MSA on Tc-MIBI net accumulation. Preparations were incubated for the times indicated in Tc-MIBI loading buffer containing 5.4 mM KCl (.quadrature., .smallcircle.) or 5.4 mM K-MSA ( , ·; prepared by equimolar substitution of K-MSA KCl) in the absence (.quadrature., ) or presence (.smallcircle., ·) of TPB (10^-5 M). Each point represents the mean ±SEM of 3 determinations.
# Control buffer was a modified Earle's balanced salt solution (MEBSS) with the following composition (mN) Na^30, 145; K^+, 5.4; Ca^2, 1.2; Mg^2+, 0.8; Cl, 152; H2 PO4, 0.8; SO4^2-, 0.8; dextrose, 5.6; HEPES, 4.0; and bovine calf serum, 1% (v/v); […]; 37° C. K-methanesulfonate was made by titration of methanesulfonic acid with KOH (Piwnica-Worms, D., et al., J. Gen. Physiol. 81:731-748 (1983)) and replaced […] in some solutions by equimolar substitution where indicated. Natetraphenylborate, CCCP, bumetanide and valinomycin were dissolved into DMSO prior to addition to buffer. DMSO alone has no significant affect on contractile activity, action potential configuration (Lieberman, M., et al., Dev. Biol. 31:380-403 (1973)) or Tc-MIBI uptake kinetics (Piwnica-Worms, D., et al., Circ. (in press)).
# as §1, with “(1987)).” for “(1987)). Hearts were trimmed of connective tissue and atria, finely minced and serially exposed to 0.024% (w/v) trypsin in Ca^2+ - and Mg^2+ - free Earle's salt solution for 7 minutes at 37° C.”
# Radioactive uptake methods have been described in detail (Piwnica-Worms, D., et al, Circ. (in press). Briefly, coverslips with confluent cells were removed from culture media and pre-equilibrated for 40-60 seconds in MEBSS buffer. Uptake and retention experiments were initiated by immersion of coverslips in 60 mm glass Pyrex dishes containing loading solution consisting of buffer with 0.1-0.6 nM [^99m Tc-MIBI] (0.01-0.4 Ci/nmole; 25-100 uCi/ml). Preparations were removed at various times and rinsed three times in 25 ml volumes of ice-cold (2° C.) isotope-free buffer for 8 seconds each to clear extracellular spaces. Preparations and aliquots of the loading buffer and stock solutions were counted in a well-type sodium iodide gamma counter after which cell protein on each coverslip was extracted in 1% sodium dodecylsulfate with 10 mM sodium borate and assayed by the method of Lowry (Lowry, O. H., et al., J. Biol. Chem. 193:265-275 (1951)). […]
structure (smiles),measurement,setting,value
"[C-]#[N+]CC(C)(C)OC.[C-]#[N+]CC(C)(C)OC.[C-]#[N+]CC(C)(C)OC.[C-]#[N+]CC(C)(C)OC.[C-]#[N+]CC(C)(C)OC.[C-]#[N+]CC(C)(C)OC.[Tc] [Tc-MIBI, hexakis(methoxyisobutylisonitrile)technetium(I)]",nominal intracellular/extracellular accumulation ratio vs Ki/Ko ratio,[1],greater than those expected from the Ki /Ko ratios in the absence of TPB
same,safety in humans,[2],shown to be safe in humans as a diagnostic pharmaceutical
same,Tc-MIBI uptake,"[3]; 130 mM K-MSA buffer, P=0.01",79.3±1.1 fmol Tc-MIBI/mg protein per nM
same,Tc-MIBI uptake,[3]; 130 mM KCl buffer + bumetanide 10^-5 M,63.7±3.2 fmol Tc-MIBI/mg protein per nM

# Reference: US5277897A, “In vivo enhancement of cellular accumulation of lipophilic cationic organometallic compounds by reduction of intramembrane potential” (Brigham and Women's Hospital, priority 1992, dated 1994)
